Measurements reported in patent US20070088064A1, “PHARMACEUTICAL COMPOSITION CONTAINING BICYCLIC TYPE COMPOUNDS” (SmithKline Beecham plc, priority 1992, published 2007).

Tested on: electrically-induced seizures
Test: Maximal electroshock seizure (MES) threshold test
Assay type: in vivo
Conditions: 10 mg/kg p.o., mice
Protocol: The maximal electroshock seizure (MES) threshold test in rodents is particularly sensitive for detecting potential anticonvulsant properties^1. In this model, anticonvulsant agents elevate the threshold to electrically—induced seizures whilst proconvulsants lower the seizure threshold.
Mice (male, Charles River, U.K. CD-1 strain, 25-30 g) are randomly assigned to groups of 10-20 and dosed orally or intraperitoneally at a dose volume of 10 ml/kg with various doses of compound (0.3-300 mg/kg) or vehicle. Mice are then subjected at 30 or 60 min post dose to a single electroshock (0.1 sec, 50 Hz, sine wave form) administered via corneal electrodes. The mean current and standard error required to induce a tonic seizure in 50% (CC50) of the mice in a particular treatment group is determined by the ‘up and down’ method of Dixon and Mood (1948)^2. Stastical comparisons between vehicle—and drug—treated groups are made using the method of Litchfield and Wilcoxon (1949)^3.
In control animals the CC50 is usually 14-18 mA. […] If a tonic convulsion does occur, then the current is decreased, and so on until all the animals in the group have been tested.
The percentage increase or decrease in CC50 for each group compared to the control is calculated. […]

SMILES | enhanced seizure threshold (percentage increase in CC50 compared to control)
CC(=O)c1ccc2c(c1)[C@H](NC(=O)c1ccc(F)cc1)[C@H](O)C(C)(C)O2 (relative stereo) [Example 3, cis-6-Acetyl-4S-(4-fluorobenzoylamino)-3,4-dihydro-2,2-dimethyl-2H-1-benzopyran-3S-ol] | 84%
CCc1ccc2c(c1)[C@H](NC(=O)c1ccc(F)cc1)[C@H](O)C(C)(C)O2 (relative stereo) [Example 7, cis-6-Ethyl-4S-(4-fluorobenzoylamino)-3,4-dihydro-2,2-dimethyl-2H-1-benzopyran-3S-ol] | 105%
